This experiment concerns the target T1, β-catenin (Homo sapiens, UniProt P35222).
T1 construct: gene CTNNB1; β-catenin protein (11279-H20B, Sinobiological)
T1 sequence (P35222 2-781): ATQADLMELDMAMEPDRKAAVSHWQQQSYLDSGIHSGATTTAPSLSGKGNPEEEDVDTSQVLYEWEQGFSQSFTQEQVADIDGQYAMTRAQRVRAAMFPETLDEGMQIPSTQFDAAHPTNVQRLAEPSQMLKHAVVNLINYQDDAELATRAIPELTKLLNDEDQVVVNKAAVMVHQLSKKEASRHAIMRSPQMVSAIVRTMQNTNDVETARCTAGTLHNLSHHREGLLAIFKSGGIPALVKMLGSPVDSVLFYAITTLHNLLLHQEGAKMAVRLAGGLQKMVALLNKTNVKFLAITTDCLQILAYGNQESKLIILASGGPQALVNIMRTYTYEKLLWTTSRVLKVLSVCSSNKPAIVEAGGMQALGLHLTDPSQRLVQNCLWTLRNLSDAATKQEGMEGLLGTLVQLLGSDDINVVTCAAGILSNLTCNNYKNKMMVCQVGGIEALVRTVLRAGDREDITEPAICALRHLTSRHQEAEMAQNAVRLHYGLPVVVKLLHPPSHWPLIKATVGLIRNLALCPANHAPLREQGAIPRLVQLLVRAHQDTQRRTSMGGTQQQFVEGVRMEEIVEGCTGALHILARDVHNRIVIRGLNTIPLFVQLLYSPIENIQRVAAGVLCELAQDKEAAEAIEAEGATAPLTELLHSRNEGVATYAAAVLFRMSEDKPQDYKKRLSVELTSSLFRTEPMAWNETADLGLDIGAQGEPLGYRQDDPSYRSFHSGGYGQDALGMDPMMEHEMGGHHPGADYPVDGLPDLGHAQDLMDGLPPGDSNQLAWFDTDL
The experiment can be described thus: SPR (Biacore T200, CM5 chip, amine-coupled β-catenin); supported by CETSA in HO-8910PM lysate. It is filed as binding. (Surface plasmon resonance follows binding to a sensor surface in real time, without labels.)

One may read the Kd as the concentration at which binding is half-saturated. A low value points to tighter binding.

Consider `C[C@@H]1CC[C@@]2(OC1)O[C@H]1C[C@H]3[C@@H]4CC=C5C[C@@H](O[C@@H]6O[C@H](CO)[C@@H](O[C@@H]7O[C@@H](CO)[C@H](O)[C@H]7O)[C@H](O)[C@H]6O[C@@H]6O[C@@H](C)[C@H](O)[C@@H](O)[C@H]6O)CC[C@]5(C)[C@H]4CC[C@]3(C)[C@H]1[C@@H]2C` [PPI, Polyphyllin I], for which the Kd turned out to be 2200 nM.
